What was measured:
Test in all cases: relative viability (nuclei count vs DMSO), 5 days (fraction); higher = more cells survive
[1] = system: LC-2-ad
Summary of the method: (§1)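 Cells from lung cancer lines were seeded into 1536-well plates and, one day later, dosed by pin tool. Treatments were either a single drug or a fixed dose of an anchor drug with five library-drug doses (not always all listed) in √10 steps. After 5 days, nuclei were stained in a one-step fixation (final 0.05% Triton X-100, 1% formaldehyde, 1 ug/ml Hoechst) and counted on 4× images, and relative viability is the treated-to-vehicle nuclei ratio, as the median of duplicate plates.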

[2] = system: UMC-11
Summary of the method: as §1

[3] = system: CAL-12T
Summary of the method: as §1

[4] = system: HCC-827
Summary of the method: as §1

[5] = system: RERF-LC-KJ
Summary of the method: as §1

[6] = system: LU99A
Summary of the method: as §1

[7] = system: 201T
Summary of the method: as §1

[8] = system: LCLC-103H
Summary of the method: as §1

[9] = system: NCI-H322M
Summary of the method: as §1

[10] = system: NCI-H2228
Summary of the method: as §1

[11] = system: LK-2
Summary of the method: as §1

[12] = system: NCI-H1792
Summary of the method: as §1

[13] = system: NCI-H1437
Summary of the method: as §1

[14] = system: BEN
Summary of the method: as §1

[15] = system: NCI-H1651
Summary of the method: as §1

[16] = system: NCI-H23
Summary of the method: as §1

[17] = system: COR-L 105
Summary of the method: as §1

[18] = system: NCI-H2405
Summary of the method: as §1

[19] = system: HCC-15
Summary of the method: as §1

[20] = system: HARA
Summary of the method: as §1

[21] = system: NCI-H2085
Summary of the method: as §1

[22] = system: H3255
Summary of the method: as §1

[23] = system: LXF-289
Summary of the method: as §1

Compound `O=C(O)CCCCC(CCSCc1ccccc1)SCc1ccccc1` (configuration not stated) [CPI-613] + N=C(N)NC(=N)NCCc1ccccc1 [Phenformin] (partner 250 µM) has a relative viability ([1]; first compound 5 µM) of 0.569, a relative viability ([1]; first compound 15.81 µM) of 0.558 and a relative viability ([1]; first compound 50 µM) of 0.567. It also gave a relative viability ([1]; first compound 158.11 µM) of 0.396, a relative viability ([1]; first compound 500 µM) of 0.0712 and a relative viability ([2]; first compound 5 µM) of 0.274. It also gave a relative viability ([2]; first compound 15.81 µM) of 0.297, a relative viability ([2]; first compound 50 µM) of 0.289 and a relative viability ([2]; first compound 158.11 µM) of 0.124. It also gave a relative viability ([2]; first compound 500 µM) of 0.117, a relative viability ([3]; first compound 5 µM) of 0.538 and a relative viability ([3]; first compound 15.81 µM) of 0.546. For the same compound, the relative viability ([3]; first compound 50 µM) was 0.464, the relative viability ([3]; first compound 158.11 µM) was 0.0459 and the relative viability ([3]; first compound 500 µM) was 0.0085. For the same compound, the relative viability ([4]; first compound 5 µM) was 0.361, the relative viability ([4]; first compound 15.81 µM) was 0.374 and the relative viability ([4]; first compound 50 µM) was 0.41. It also gave a relative viability ([4]; first compound 158.11 µM) of 0.318, a relative viability ([4]; first compound 500 µM) of 0.185 and a relative viability ([5]; first compound 5 µM) of 0.42. It also gave a relative viability ([5]; first compound 15.81 µM) of 0.409, a relative viability ([5]; first compound 50 µM) of 0.406 and a relative viability ([5]; first compound 158.11 µM) of 0.134. The relative viability ([5]; first compound 500 µM) was 0.0945, the relative viability ([6]; first compound 5 µM) was 0.801 and the relative viability ([6]; first compound 15.81 µM) was 0.793. For the same compound, the relative viability ([6]; first compound 50 µM) was 0.823, the relative viability ([6]; first compound 158.11 µM) was 0.733 and the relative viability ([6]; first compound 500 µM) was 0.0986. It also gave a relative viability ([7]; first compound 5 µM) of 0.514, a relative viability ([7]; first compound 15.81 µM) of 0.432 and a relative viability ([7]; first compound 50 µM) of 0.415. For the same compound, the relative viability ([7]; first compound 158.11 µM) was 0.36, the relative viability ([7]; first compound 500 µM) was 0.0726 and the relative viability ([8]; first compound 5 µM) was 0.322. For the same compound, the relative viability ([8]; first compound 15.81 µM) was 0.297, the relative viability ([8]; first compound 50 µM) was 0.377 and the relative viability ([8]; first compound 158.11 µM) was 0.294. It also gave a relative viability ([8]; first compound 500 µM) of 0.278, a relative viability ([9]; first compound 5 µM) of 0.76 and a relative viability ([9]; first compound 15.81 µM) of 0.718. For the same compound, the relative viability ([9]; first compound 50 µM) was 0.728, the relative viability ([9]; first compound 158.11 µM) was 0.693 and the relative viability ([9]; first compound 500 µM) was 0.0264. The relative viability ([10]; first compound 5 µM) was 0.344, the relative viability ([10]; first compound 15.81 µM) was 0.33 and the relative viability ([10]; first compound 50 µM) was 0.222. For the same compound, the relative viability ([10]; first compound 158.11 µM) was 0.208, the relative viability ([10]; first compound 500 µM) was 0.0339 and the relative viability ([11]; first compound 5 µM) was 0.379. It also gave a relative viability ([11]; first compound 15.81 µM) of 0.32, a relative viability ([11]; first compound 50 µM) of 0.517 and a relative viability ([11]; first compound 158.11 µM) of 0.346. For the same compound, the relative viability ([11]; first compound 500 µM) was 0.0954, the relative viability ([12]; first compound 5 µM) was 0.332 and the relative viability ([12]; first compound 50 µM) was 0.236. It also gave a relative viability ([12]; first compound 158.11 µM) of 0.205, a relative viability ([12]; first compound 500 µM) of 0.0809 and a relative viability ([13]; first compound 5 µM) of 0.237. For the same compound, the relative viability ([13]; first compound 15.81 µM) was 0.282, the relative viability ([13]; first compound 50 µM) was 0.287 and the relative viability ([13]; first compound 158.11 µM) was 0.119. The relative viability ([13]; first compound 500 µM) was 0.0327, the relative viability ([14]; first compound 5 µM) was 0.242 and the relative viability ([14]; first compound 15.81 µM) was 0.251. It also gave a relative viability ([14]; first compound 50 µM) of 0.255, a relative viability ([14]; first compound 158.11 µM) of 0.25 and a relative viability ([14]; first compound 500 µM) of 0.215. The relative viability ([15]; first compound 5 µM) was 0.326, the relative viability ([15]; first compound 15.81 µM) was 0.316 and the relative viability ([15]; first compound 50 µM) was 0.303. It also gave a relative viability ([15]; first compound 158.11 µM) of 0.166, a relative viability ([15]; first compound 500 µM) of 0.126 and a relative viability ([16]; first compound 5 µM) of 0.819. It also gave a relative viability ([16]; first compound 15.81 µM) of 0.746, a relative viability ([16]; first compound 50 µM) of 0.803 and a relative viability ([16]; first compound 158.11 µM) of 0.358. The relative viability ([16]; first compound 500 µM) was 0.0072, the relative viability ([17]; first compound 5 µM) was 0.428 and the relative viability ([17]; first compound 15.81 µM) was 0.405. It also gave a relative viability ([17]; first compound 50 µM) of 0.443, a relative viability ([17]; first compound 158.11 µM) of 0.279 and a relative viability ([17]; first compound 500 µM) of 0.112. For the same compound, the relative viability ([18]; first compound 5 µM) was 0.394, the relative viability ([18]; first compound 15.81 µM) was 0.367 and the relative viability ([18]; first compound 50 µM) was 0.392. The relative viability ([18]; first compound 158.11 µM) was 0.396, the relative viability ([18]; first compound 500 µM) was 0.371 and the relative viability ([19]; first compound 5 µM) was 0.435. It also gave a relative viability ([19]; first compound 15.81 µM) of 0.439, a relative viability ([19]; first compound 50 µM) of 0.414 and a relative viability ([19]; first compound 158.11 µM) of 0.178. The relative viability ([19]; first compound 500 µM) was 0.0244, the relative viability ([20]; first compound 15.81 µM) was 0.394 and the relative viability ([20]; first compound 50 µM) was 0.444. The relative viability ([20]; first compound 158.11 µM) was 0.267, the relative viability ([20]; first compound 500 µM) was 0.0155 and the relative viability ([21]; first compound 5 µM) was 0.814. The relative viability ([21]; first compound 15.81 µM) was 0.62, the relative viability ([21]; first compound 50 µM) was 0.701 and the relative viability ([21]; first compound 158.11 µM) was 0.295. It also gave a relative viability ([21]; first compound 500 µM) of 0.0903, a relative viability ([22]; first compound 5 µM) of 0.351 and a relative viability ([22]; first compound 15.81 µM) of 0.299. The relative viability ([22]; first compound 50 µM) was 0.399, the relative viability ([22]; first compound 500 µM) was 0.299 and the relative viability ([23]; first compound 5 µM) was 0.516. It also gave a relative viability ([23]; first compound 15.81 µM) of 0.504, a relative viability ([23]; first compound 50 µM) of 0.511 and a relative viability ([23]; first compound 158.11 µM) of 0.443. The relative viability ([23]; first compound 500 µM) was 0.0481.

From the supplement of paper PMC10307832
